Values joined by “and” are separate entries in the source; they are usually repeats but may differ in a detail not shown here. Identical values can stand only once. Like-named read-outs stand apart in the source and are kept apart here.
Tests used:
[1] = Pharmacokinetic study of OSIM in rats, alone or after voriconazole, itraconazole or fluconazole pretreatment (plasma concentration by HPLC-MS/MS); format: in vivo, Sprague-Dawley rats; parameters: Conc. (plasma): unit not given here; details: for Conc. (plasma): individual rats; for AUC(0-inf) / AUC(0-t) / CL/F / Cmax / Tmax / Vd/F / half-life / MRT inf: male, Sprague-Dawley, rat, plasma, po, 10 mg/kg; for Vd/F: read-out: Vz/F; for MRT inf: read-out: MRT0–inf
Experimental: A liquid chromatography with tandem mass spectrometry (HPLC-MS/MS) system coupled to a JasperTM HPLC and Triple […] and equipped with an electrospray ionization (ESI) interface source (AB Sciex, Redwood City, CA, USA) was used for the analysis. […] Waters Corp., Milford, MA, USA) maintained at 45 °C. Mobile phase A was 0.2% formic acid in water, and mobile phase B was acetonitrile. […] Carry-over was minimized with methanol-acetonitrile-isopropanol-water solution (1:1:1:1, v/v/v/v) before and after the injection procedure. […] Subsequently, all samples were vortex-mixed for 30 s and were centrifuged at 14,000 × g for 10 min. Finally, each sample was reconstituted with an aliquot of mobile phase A. The sample was transferred to a 0.8 mL 96-well plate, of which 5 μL was injected into HPLC-MS/MS system for analysis. Twenty-four adult male Sprague-Dawley rats (220 ± 20 g) with specific pathogen free were supplied by the Laboratory Animal Center of Zhejiang Provincial People's Hospital. […] The study was performed in accordance with the Animal Care and Use Committee of Zhejiang Provincial People's Hospital (number: […], and FCZ were prepared in 0.3% carboxymethyl cellulose sodium (CMC-Na). After 12 h of fasting and free water consumption, the rats were randomly separated into four groups, and the sample size was based on a similar study using as few rats as possible (n = 6): control (equivalent volume of 0.3% CMC-Na), VCZ (20 mg/kg), ICZ (20 mg/kg), and FCZ (20 mg/kg) groups. Only those responsible for treatment management researchers know this group well. Each group was housed in a single cage. The rats in the four groups were orally dosed once daily with 0.3% CMC-Na, VCZ, ICZ, or FCZ, respectively; they reached steady-state exposure after five continuous days of dosing. […] All rats received an oral gavage dose of approximately equivalent volume treatment regimens (one mL). Rats were restrained on the rat fixator on the laboratory bench. […] Experimental data were given as mean ± standard deviation (SD). The mean concentration levels of OSIM versus time profile were drawn using GraphPad Prism 9.4 (GraphPad Software, Inc., San Diego, CA, USA). […] SPSS 26.0 was used for statistical analysis (IBM, Armonk, USA). Significant differences among the groups were identified using one-way ANOVA and Tukey test. P < 0.05 was considered significant.

[2] = parameters: method as in Brown et al., 2017; details: with ICZ compared with OSIM administered alone; ref Brown et al., 2017; cited from earlier work
[3] = ICZ group vs control, rats, P < 0.05
[4] = OSIM 10 mg/kg oral after fluconazole 20 mg/kg oral once daily for 5 days, rats, n = 6
[5] = OSIM 10 mg/kg oral after voriconazole 20 mg/kg oral once daily for 5 days, rats, n = 6
[6] = co-administered with itraconazole vs control, rats
[7] = co-administration with VCZ vs OSIM alone, rats
[8] = co-administration with fluconazole vs control, rats
[9] = OSIM 10 mg/kg oral after itraconazole 20 mg/kg oral once daily for 5 days, rats, n = 6
[10] = OSIM 10 mg/kg oral, control (0.3% CMC-Na), rats, n = 6, mean ± SD

C=CC(=O)Nc1cc(Nc2nccc(-c3cn(C)c4ccccc34)n2)c(OC)cc1N(C)CCN(C)C [OSIM, Osimertinib]
Conc. (plasma) ([1]; Con group (OSIM alone), Time 0.25): 8.0671 and 11.9979 | Conc. (plasma) ([1]; Con group (OSIM alone), Time 0.5): 12.1988 and 19.9452 | Conc. (plasma) ([1]; Con group (OSIM alone), Time 1): 26.2008 and 25.1352 | Conc. (plasma) ([1]; Con group (OSIM alone), Time 2): 34.4763 and 31.6327 | Conc. (plasma) ([1]; Con group (OSIM alone), Time 4): 32.976 and 28.9864 | Conc. (plasma) ([1]; Con group (OSIM alone), Time 5): 24.2861 and 21.3664 | Conc. (plasma) ([1]; Con group (OSIM alone), Time 6): 16.055 and 19.5716 and 16.4633 | Conc. (plasma) ([1]; Con group (OSIM alone), Time 8): 9.5939 and 12.9324 and 12.4752 | Conc. (plasma) ([1]; Con group (OSIM alone), Time 12): 3.1238 and 5.2228 and 5.1031 | Conc. (plasma) ([1]; Con group (OSIM alone), Time 24): 0.3493 and 0.667 | Conc. (plasma) ([1]; Con group (OSIM alone), Time 48): 0.1948 and 0.7004 | AUC0–t of OSIM enhanced by ([1]; FCZ group vs control, rats): ~1.01 fold | Cmax of OSIM enhanced by ([1]; FCZ group vs control, rats): approximately 0.53 fold | reduction of Cl/F of OSIM ([1]; FCZ group vs control, rats): 49.49% | reduction of Vz/F of OSIM ([1]; FCZ group vs control, rats): 55.89% | Conc. (plasma) ([1]; Flu group (fluconazole pretreatment), Time 0.25): 7.8097 and 15.8697 | Conc. (plasma) ([1]; Flu group (fluconazole pretreatment), Time 0.5): 11.781 and 29.3217 | Conc. (plasma) ([1]; Flu group (fluconazole pretreatment), Time 1): 19.1216 | Conc. (plasma) ([1]; Flu group (fluconazole pretreatment), Time 2): 33.0063 and 43.3299 | Conc. (plasma) ([1]; Flu group (fluconazole pretreatment), Time 3): 39.5899 and 53.0362 | Conc. (plasma) ([1]; Flu group (fluconazole pretreatment), Time 4): 43.6983 and 40.9109 | Conc. (plasma) ([1]; Flu group (fluconazole pretreatment), Time 5): 33.9054 and 36.7921 | Conc. (plasma) ([1]; Flu group (fluconazole pretreatment), Time 6): 33.9688 | Conc. (plasma) ([1]; Flu group (fluconazole pretreatment), Time 8): 18.8994 and 29.246 and 22.772 | Conc. (plasma) ([1]; Flu group (fluconazole pretreatment), Time 12): 8.5799 and 18.5501 and 14.3797 | Conc. (plasma) ([1]; Flu group (fluconazole pretreatment), Time 24): 1.2033 and 2.0928 and 2.1757 | Conc. (plasma) ([1]; Flu group (fluconazole pretreatment), Time 48): 0.3201 and 0.2978 | decrease in Vz/F of OSIM [1, 3]: 38.08% | decrease in t1/2 of OSIM [1, 3]: 25.41% | Conc. (plasma) ([1]; Itr group (itraconazole pretreatment), Time 0.25): 5.2753 and 10.1717 | Conc. (plasma) ([1]; Itr group (itraconazole pretreatment), Time 0.5): 2.137 and 22.1484 | Conc. (plasma) ([1]; Itr group (itraconazole pretreatment), Time 1): 14.402 and 30.439 | Conc. (plasma) ([1]; Itr group (itraconazole pretreatment), Time 2): 19.1571 and 37.1482 | Conc. (plasma) ([1]; Itr group (itraconazole pretreatment), Time 3): 31.5023 | Conc. (plasma) ([1]; Itr group (itraconazole pretreatment), Time 4): 27.9801 | Conc. (plasma) ([1]; Itr group (itraconazole pretreatment), Time 5): 22.7144 and 26.9275 | Conc. (plasma) ([1]; Itr group (itraconazole pretreatment), Time 6): 27.5418 and 15.763 and 19.3207 | Conc. (plasma) ([1]; Itr group (itraconazole pretreatment), Time 8): 24.0911 and 10.4766 and 13.0808 | Conc. (plasma) ([1]; Itr group (itraconazole pretreatment), Time 12): 4.7714 and 7.383 | Conc. (plasma) ([1]; Itr group (itraconazole pretreatment), Time 24): 1.7983 and 0.7083 and 1.0943 | Conc. (plasma) ([1]; Itr group (itraconazole pretreatment), Time 48): 0.2444 and 0.2377 | MRT0–inf [1, 4]: 8.32 ± 0.47 h | t1/2 [1, 4]: 5.75 ± 0.25 h | t1/2 [1, 5]: 3.82 ± 0.34 h | decrease in Cl/F of OSIM ([1]; VCZ group vs control, rats): 37.74% | decrease in Vz/F of OSIM ([1]; VCZ group vs control, rats): 64.03% | decrease in t1/2 of OSIM ([1]; VCZ group vs control, rats): 42.56% | other parameters (Cmax, Tmax, AUC, MRT, and Cl/F) compared with the control group ([1]; administration of OSIM with ICZ, rats): not significantly different | increase in AUC0–t of OSIM [1, 6]: 34.80% | increase in Cmax of OSIM [1, 6]: 13.91% | effect on t1/2 and Tmax of orally administered OSIM ([1]; co-administration with FCZ vs control, rats): did not significantly alter | increase in AUC0–t of OSIM [1, 7]: 62.56% | increase in Cmax of OSIM [1, 7]: 58.04% | increase in AUC0–t of OSIM [1, 8]: 100.98% | increase in Cmax of OSIM [1, 8]: 53.45% | AUC(0-inf) [1, 4]: 524 ± 92.4 ng·h/mL | AUC(0-t) [1, 4]: 521 ± 92.5 ng·h/mL | CL/F [1, 4]: 325 mL/min/kg | Cmax [1, 4]: 50.8 ± 8.41 ng/mL | Tmax [1, 4]: 3.17 ± 0.98 h | Vd/F [1, 4]: 162 ± 26.7 L/kg | AUC(0-inf) [1, 9]: 357 ± 99.7 ng·h/mL | AUC(0-t) [1, 9]: 350 ± 96.3 ng·h/mL | CL/F [1, 9]: 504 mL/min/kg | Cmax [1, 9]: 37.7 ± 11.5 ng/mL | Tmax [1, 9]: 3.83 ± 1.6 h | half-life [1, 9]: 4.96 ± 1.1 h | MRT inf [1, 9]: 7.51 ± 0.6 h | Vd/F [1, 9]: 228 ± 127 L/kg | AUC(0-inf) [1, 5]: 422 ± 57.9 ng·h/mL | AUC(0-t) [1, 5]: 422 ± 58.4 ng·h/mL | CL/F [1, 5]: 401 mL/min/kg | Cmax [1, 5]: 52.3 ± 10.5 ng/mL | Tmax [1, 5]: 2.83 ± 0.41 h | MRT inf [1, 5]: 6.83 ± 0.36 h | Vd/F [1, 5]: 132 ± 17.9 L/kg | AUC(0-inf) [1, 10]: 264 ± 34.4 ng·h/mL | AUC(0-t) [1, 10]: 259 ± 33.1 ng·h/mL | CL/F [1, 10]: 644 mL/min/kg | Cmax [1, 10]: 33.1 ± 3.66 ng/mL | Tmax [1, 10]: 2.33 ± 0.52 h | half-life [1, 10]: 6.65 ± 0.48 h | MRT inf [1, 10]: 7.61 ± 0.74 h | Vd/F [1, 10]: 368 ± 36.3 L/kg | Conc. (plasma) ([1]; vor group (voriconazole pretreatment), Time 0.25): 7.2019 and 17.8367 | Conc. (plasma) ([1]; vor group (voriconazole pretreatment), Time 0.5): 35.8513 | Conc. (plasma) ([1]; vor group (voriconazole pretreatment), Time 1): 38.47 | Conc. (plasma) ([1]; vor group (voriconazole pretreatment), Time 2): 40.5898 and 38.9958 | Conc. (plasma) ([1]; vor group (voriconazole pretreatment), Time 3): 68.6321 and 46.961 | Conc. (plasma) ([1]; vor group (voriconazole pretreatment), Time 4): 35.6688 and 44.311 | Conc. (plasma) ([1]; vor group (voriconazole pretreatment), Time 5): 28.7864 and 35.6992 | Conc. (plasma) ([1]; vor group (voriconazole pretreatment), Time 6): 35.4312 and 22.8434 and 29.124 | Conc. (plasma) ([1]; vor group (voriconazole pretreatment), Time 8): 20.9535 and 15.9897 and 16.5811 | Conc. (plasma) ([1]; vor group (voriconazole pretreatment), Time 12): 10.8434 and 7.3402 and 9.397 | Conc. (plasma) ([1]; vor group (voriconazole pretreatment), Time 24): 0.9533 and 0.6206 | Conc. (plasma) ([1]; vor group (voriconazole pretreatment), Time 48): 0.0227 and 0.021 | increase in AUC0–t of OSIM [2]: approximately 8%

From PMC10423561, “Effects of the CYP3A inhibitors, voriconazole, itraconazole, and fluconazole on the pharmacokinetics of osimertinib in rats” (PeerJ, 2023)
